According to US9526721B2, “Tetrahydroprotoberbine compounds and uses thereof in the treatment of neurological, psychiatric and neurodegenerative diseases” (priority 2012, dated 2016):

Legend:
5HT1A = biological target: T1, 5HT1A (Homo sapiens, UniProt P08908); experiment: Receptor binding, 5HT1A; conditions: receptor expressed in CHO cells
T1 construct: host or cells: CHO cells
T1 sequence (P08908 1-422): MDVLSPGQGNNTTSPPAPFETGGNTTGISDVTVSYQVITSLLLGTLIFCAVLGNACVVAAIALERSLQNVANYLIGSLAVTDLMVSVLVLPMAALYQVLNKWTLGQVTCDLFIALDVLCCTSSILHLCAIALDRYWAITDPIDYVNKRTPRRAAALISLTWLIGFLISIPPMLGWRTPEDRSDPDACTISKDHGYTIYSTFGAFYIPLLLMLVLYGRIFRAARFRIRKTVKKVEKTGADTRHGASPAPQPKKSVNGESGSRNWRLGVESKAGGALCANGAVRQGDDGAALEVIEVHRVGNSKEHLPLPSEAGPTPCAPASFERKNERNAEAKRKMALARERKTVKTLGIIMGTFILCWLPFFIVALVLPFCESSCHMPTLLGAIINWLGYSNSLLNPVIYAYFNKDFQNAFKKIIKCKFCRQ
Method: (§1) All receptors tested were heterologously expressed CHO cells and IC50 values were determined by a non-linear, least squares regression analysis using MathIQ (ID Business Solution Ltd, UK). Ki was calculated using the equation of Cheng and Prusoff (1973, Biochem. Pharmacol 22:23099-3108) derived from the observed IC50 of the tested compound, the concentration of radioligand employed in the assay, and the historical values for the Kd of the ligand (obtained experimentally at MDS Pharma Services).
as §1, with “receptors” for “receptors tested”, “UK). K1” for “UK). Ki”, “calculated (Y.” for “calculated using the equation of”, “Cheng &” for “Cheng and”, “Prusoff 1973)” for “Prusoff (1973, Biochem. Pharmacol 22:23099-3108) derived”

5HT3 = biological target: T2, 5HT3 (Homo sapiens, UniProt P46098); experiment: Receptor binding, 5HT3; conditions: CHO cells
T2 construct: host or cells: CHO cells
T2 sequence (P46098 24-478): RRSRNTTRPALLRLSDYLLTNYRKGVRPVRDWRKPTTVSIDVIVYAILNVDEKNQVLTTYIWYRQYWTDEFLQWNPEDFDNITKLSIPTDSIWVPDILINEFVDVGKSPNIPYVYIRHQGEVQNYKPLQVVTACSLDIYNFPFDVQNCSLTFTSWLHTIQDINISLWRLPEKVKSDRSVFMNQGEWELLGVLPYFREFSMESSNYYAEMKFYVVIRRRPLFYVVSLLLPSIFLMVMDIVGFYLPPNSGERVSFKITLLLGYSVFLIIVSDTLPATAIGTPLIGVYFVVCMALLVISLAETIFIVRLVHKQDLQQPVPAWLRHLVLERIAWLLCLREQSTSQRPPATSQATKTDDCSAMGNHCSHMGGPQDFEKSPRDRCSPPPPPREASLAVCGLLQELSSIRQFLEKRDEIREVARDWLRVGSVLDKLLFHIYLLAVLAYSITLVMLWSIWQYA
Method: as §1

5HT4 = biological target: T3, 5HT4 (Homo sapiens, UniProt Q13639); experiment: Receptor binding, 5HT4
T3 construct: host or cells: CHO cells
T3 sequence (Q13639 whole entry, species assumed): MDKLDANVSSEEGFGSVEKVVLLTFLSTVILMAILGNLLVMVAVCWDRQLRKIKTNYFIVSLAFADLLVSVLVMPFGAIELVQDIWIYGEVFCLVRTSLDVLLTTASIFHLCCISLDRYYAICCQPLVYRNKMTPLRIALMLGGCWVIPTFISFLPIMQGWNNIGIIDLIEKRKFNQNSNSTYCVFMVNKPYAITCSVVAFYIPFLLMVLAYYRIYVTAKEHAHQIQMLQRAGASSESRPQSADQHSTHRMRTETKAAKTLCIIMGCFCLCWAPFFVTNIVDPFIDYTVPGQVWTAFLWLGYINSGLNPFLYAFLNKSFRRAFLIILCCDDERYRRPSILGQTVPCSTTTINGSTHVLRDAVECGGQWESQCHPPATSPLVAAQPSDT
Method: as §1

5HT6 = biological target: T4, 5HT6 (Homo sapiens, UniProt P50406); experiment: Receptor binding, 5HT6; conditions: CHO cells
T4 construct: host or cells: CHO cells
T4 sequence (P50406 whole entry, species assumed): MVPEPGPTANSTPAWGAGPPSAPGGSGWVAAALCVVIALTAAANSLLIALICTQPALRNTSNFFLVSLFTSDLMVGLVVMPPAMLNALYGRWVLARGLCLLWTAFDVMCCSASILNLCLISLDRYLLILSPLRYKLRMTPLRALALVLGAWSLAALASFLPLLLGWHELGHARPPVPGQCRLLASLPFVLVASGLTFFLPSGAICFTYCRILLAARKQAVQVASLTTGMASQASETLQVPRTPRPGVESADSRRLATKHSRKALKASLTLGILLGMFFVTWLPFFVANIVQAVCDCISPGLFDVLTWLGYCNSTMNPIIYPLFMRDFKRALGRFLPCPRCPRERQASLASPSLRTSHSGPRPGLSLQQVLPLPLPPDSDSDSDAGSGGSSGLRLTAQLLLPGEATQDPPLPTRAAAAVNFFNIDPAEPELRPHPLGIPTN
Method: as §1

D3 = biological target: T5, D3 (Homo sapiens, UniProt P35462); experiment: Receptor binding, dopamine D3; conditions: receptor expressed in CHO cells
T5 construct: host or cells: CHO cells
T5 sequence (P35462 whole entry): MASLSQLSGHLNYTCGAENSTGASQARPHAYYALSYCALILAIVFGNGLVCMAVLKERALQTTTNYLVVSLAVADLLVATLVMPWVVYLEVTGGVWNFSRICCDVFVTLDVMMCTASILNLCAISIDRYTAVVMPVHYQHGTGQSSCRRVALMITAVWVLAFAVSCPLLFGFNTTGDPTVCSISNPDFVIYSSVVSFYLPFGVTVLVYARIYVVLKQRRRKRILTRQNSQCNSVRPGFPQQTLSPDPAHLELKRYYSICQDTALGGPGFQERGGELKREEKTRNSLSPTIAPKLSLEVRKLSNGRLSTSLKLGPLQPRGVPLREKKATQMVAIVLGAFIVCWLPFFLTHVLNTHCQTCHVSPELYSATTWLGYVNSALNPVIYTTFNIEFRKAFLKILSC
Method: as §1
as §1, with “receptors” for “receptors tested”, “UK). K1” for “UK). Ki”, “calculated (Y.” for “calculated using the equation of”, “Cheng &” for “Cheng and”, “Prusoff 1973)” for “Prusoff (1973, Biochem. Pharmacol 22:23099-3108) derived”

D4.2 = biological target: T6, D4.2 (Homo sapiens, UniProt P21917, DEL265-296); experiment: Receptor binding, dopamine D4.2; conditions: CHO cells
T6 construct: host or cells: CHO cells
T6 sequence (P21917 with tags, fused parts or gaps DEL265-296): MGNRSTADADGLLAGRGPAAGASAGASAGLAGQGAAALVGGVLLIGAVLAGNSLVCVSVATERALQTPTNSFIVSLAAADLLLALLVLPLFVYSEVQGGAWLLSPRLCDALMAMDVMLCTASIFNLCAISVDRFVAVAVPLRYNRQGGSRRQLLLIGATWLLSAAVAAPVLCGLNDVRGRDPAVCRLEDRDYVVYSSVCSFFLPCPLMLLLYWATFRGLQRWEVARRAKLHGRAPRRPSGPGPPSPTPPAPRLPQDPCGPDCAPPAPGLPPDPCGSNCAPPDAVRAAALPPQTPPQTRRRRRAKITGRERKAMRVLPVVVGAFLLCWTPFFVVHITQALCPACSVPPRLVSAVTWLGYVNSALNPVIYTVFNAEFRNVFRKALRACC
Method: as §1

Dopamine D1 receptors = biological target: T7, Dopamine D1 receptors (Homo sapiens, UniProt P21728); experiment: Dopamine D1 receptor Adenylyl Cyclase Cellular Assay (cAMP, HTRF); type: cell-based; conditions: for IC50: D1 antagonism, cAMP, CHO cells, read-out: IC50 of antagonistic response; for % Response Agonist: increase in cAMP relative to dopamine response; for % Response Agonist / % Response Antagonist: D1 in CHO cells; for % Response Antagonist: inhibition of dopamine-induced cAMP increase
T7 construct: host or cells: CHO cells
T7 sequence (P21728 whole entry): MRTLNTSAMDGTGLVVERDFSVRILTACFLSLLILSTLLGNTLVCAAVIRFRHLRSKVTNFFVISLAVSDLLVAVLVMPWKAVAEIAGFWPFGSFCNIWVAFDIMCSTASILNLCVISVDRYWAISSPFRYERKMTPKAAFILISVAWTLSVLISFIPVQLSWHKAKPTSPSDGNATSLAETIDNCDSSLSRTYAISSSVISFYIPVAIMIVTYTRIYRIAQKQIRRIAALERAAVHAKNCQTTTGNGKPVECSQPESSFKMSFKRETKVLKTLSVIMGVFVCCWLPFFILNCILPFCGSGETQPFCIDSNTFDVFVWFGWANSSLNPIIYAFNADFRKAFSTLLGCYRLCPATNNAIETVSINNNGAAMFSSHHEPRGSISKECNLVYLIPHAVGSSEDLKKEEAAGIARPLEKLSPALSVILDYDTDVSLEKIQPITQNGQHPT
Text: Methods employed in this Example were adapted from Liu et al (1992, Mol Endocrinol 92:1815-1824) and Zhou et al (1990, Nature 347:76-79) to maximize reliability and reproducibility. Reference standards were run as an integral part of each assay to ensure the validity of the results obtained. […] (+)-Butaclamol was used as a positive control for the assay assessing antagonism. Homogeneous fluorescence methodology HTRF homogeneous fluorescence quantitation methodology was used to measure the levels of cAMP. The criterion for significant agonist activity is ≧50% increase in cAMP relative to dopamine response. The criteria for significant antagonist activity ≧50% inhibition of dopamine-induced cAMP increase.

rats [1] = experiment: Catalepsy (bar test); type: in vivo, rat; conditions: SC; for catalepsy (immobilized contact time): across doses tested
Method: Testing occurred in a plexiglas box (28 cm×45 cm×20 cm) containing a horizontal steel bar located 8 cm above floor level. […] After injection animals were returned to the test box and catalepsy testing occurred at 1, 15, 30, and 45 minutes after injection. Testing at each time point lasted 2 min after the forepaws of each rat was placed on the bar. Behavior was recorded with a video camera (Cohu, Poway, Calif.) and scored off-line. The cumulative time spent immobilized with both forelimbs on the horizontal bar was scored for each 2 min test epoch. Videos selected at random were scored independently by a second observer and a high inter-rater reliability was observed (R^2=0.93, F=393.4, p<0.05).
Catalepsy testing was conducted as described in Example 12.

rats [2] = experiment: Social interaction in NVHL and sham rats; type: in vivo, rat; conditions: 1.0 mg/kg IP 15 minutes prior to testing
Text: Experimental rats were neonatal ventral hippocampal lesioned (NVHL) and control (Sham) animals. […] The SI environment consisted of a 83×90×30 cm open field with each surface painted black.

rats [3] = experiment: Temporal order recognition (radial arm maze); conditions: for Arm Entries / Distance Travelled: 1.0 mg/kg govadine isomers, 5.0 mg/kg clozapine; for temporal order effect: injected 15 min before test trial
Method: The task exploits a rat's natural preference for novel locations. Each animal received 3 separate trials where access to two arms of an eight arm radial arm maze was granted. During the first trial, two arms were selected at random for exploration, and animals were allowed to explore these arms for 2 min After this time, they were taken off the maze and returned to their home cage. 1 hour later they were placed back on the maze and two new arms were randomly selected for 2 min of exploration.
Time spent in each arm (recent and old) was recorded as well as total distance traveled and the total number of arm entries in Noldus EthoVision 3.1 (Leesburg, Va.).

Structure (SMILES)	Ki (5HT1A) [µM]	inhibition at 10 µM (5HT3) [%]	inhibition at 10 µM (5HT4; 10 μM, CHO cells) [%]	inhibition at 10 µM (5HT6) [%]	Ki (D3) [µM]	inhibition at 10 µM (D4.2) [%]	IC50 (Dopamine D1 receptors) [µM]	% Response Agonist (Dopamine D1 receptors) [%]	% Response Antagonist (Dopamine D1 receptors) [%]	catalepsy (immobilized contact time) (rats [1])	social interaction in NVHL rats versus Sham controls (rats [2])	Arm Entries (rats [3]; 45 min. delay)	Distance Travelled (rats [3]; 45 min. delay)	temporal order effect (rats [3]; 45 min delay)	temporal order effect (rats [3]; 4 hr delay)	Arm Entries (rats [3]; 4 hr. delay)	Distance Travelled (rats [3]; 4 hr. delay)	Ki (5HT4; receptor expressed in CHO cells) [µM]	time of peak cataleptic behavior post injection (rats [1]) [min]
COc1cc2c(cc1O)CN1CCc3cc(OC)c(O)cc3[C@H]1C2 [d-govadine]	18.2	-8	42	9	0.606	20	2.38	2	82	No evidence of catalepsy	comparable levels of SI	14.8 ± 1.9	2433 ± 363	abolished	restored temporal order recognition	11 ± 1.1	2091 ± 114	–	–
COc1cc2c(cc1O)CN1CCc3cc(OC)c(O)cc3[C@@H]1C2 [l-govadine]	15.2	5	–	12	0.548	21	0.0166	2	87	Catalepsy was observed	comparable levels of SI	3.67 ± 1.9	587.7 ± 109	abolished	no temporal order effect	3.5 ± 0.9	824 ± 135	2.47	15
